Results as given in the supplement of paper PMC10307832.

How the values were obtained:
Assay in all cases: relative viability (nuclei count vs DMSO), 5 days (fraction); higher = more cells survive
[1] = compound: COc1cc(-c2nn([C@H]3CC[C@H](N4CCN(C(C)=O)CC4)CC3)c3ncnc(N)c23)ccc1NC(=O)c1cc2ccccc2n1C + Nc1ncn([C@H]2C[C@H](O)[C@@H](CO)O2)c(=O)n1 [Decitabine] (partner 2 µM)
Procedure, shortened: (§1)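 Medians of duplicate plates are given as relative viability. That measure is the nuclei count in treated wells divided by the count in vehicle wells. Counts were taken on 4× images of lung cancer cell lines in 1536-well plates, 5 days after pin-tool dosing the day after seeding with one drug alone or a fixed anchor-drug dose plus five library-drug doses (not always all listed) in √10 steps.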

Midostaurin + Linsitinib = compound: CO[C@@H]1[C@H](N(C)C(=O)c2ccccc2)C[C@H]2O[C@]1(C)n1c3ccccc3c3c4c(c5c6ccccc6n2c5c31)C(=O)NC4 [Midostaurin] + C[C@]1(O)C[C@@H](c2nc(-c3ccc4ccc(-c5ccccc5)nc4c3)c3c(N)nccn32)C1 [Linsitinib] (partner 1 µM)
Procedure, shortened: as §1

[2] = compound: COc1cc(-c2nn([C@H]3CC[C@H](N4CCN(C(C)=O)CC4)CC3)c3ncnc(N)c23)ccc1NC(=O)c1cc2ccccc2n1C + CC1(C)CCC(c2ccc(Cl)cc2)=C(CN2CCN(c3ccc(C(=O)NS(=O)(=O)c4ccc(N[C@H](CCN5CCOCC5)CSc5ccccc5)c(S(=O)(=O)C(F)(F)F)c4)cc3)CC2)C1 [Navitoclax] (partner 0.5 µM)
Procedure, shortened: as §1

Midostaurin + Crizotinib = compound: CO[C@@H]1[C@H](N(C)C(=O)c2ccccc2)C[C@H]2O[C@]1(C)n1c3ccccc3c3c4c(c5c6ccccc6n2c5c31)C(=O)NC4 [Midostaurin] + C[C@@H](Oc1cc(-c2cnn(C3CCNCC3)c2)cnc1N)c1c(Cl)ccc(F)c1Cl [Crizotinib] (partner 1 µM)
Procedure, shortened: as §1

[3] = compound: COc1cc(-c2nn([C@H]3CC[C@H](N4CCN(C(C)=O)CC4)CC3)c3ncnc(N)c23)ccc1NC(=O)c1cc2ccccc2n1C + CC(=O)c1c(C)c2cnc(Nc3ccc(N4CCNCC4)cn3)nc2n(C2CCCC2)c1=O [Palbociclib] (partner 0.5 µM)
Procedure, shortened: as §1

Cell Line | relative viability ([1]; first compound 0.0128 µM) | relative viability ([1]; first compound 0.128 µM) | relative viability ([1]; first compound 1.28 µM) | relative viability (Midostaurin + Linsitinib; first compound 0.01 µM) | relative viability (Midostaurin + Linsitinib; first compound 0.03162 µM) | relative viability (Midostaurin + Linsitinib; first compound 0.1 µM) | relative viability (Midostaurin + Linsitinib; first compound 0.3162 µM) | relative viability ([2]; first compound 0.0128 µM) | relative viability ([2]; first compound 0.04048 µM) | relative viability ([2]; first compound 0.128 µM) | relative viability ([2]; first compound 1.28 µM) | relative viability (Midostaurin + Crizotinib; first compound 0.01 µM) | relative viability (Midostaurin + Crizotinib; first compound 0.03162 µM) | relative viability (Midostaurin + Crizotinib; first compound 0.1 µM) | relative viability (Midostaurin + Crizotinib; first compound 0.3162 µM) | relative viability ([3]; first compound 0.0128 µM) | relative viability ([3]; first compound 0.128 µM) | relative viability ([3]; first compound 1.28 µM) | relative viability ([1]; first compound 0.04048 µM) | relative viability ([3]; first compound 0.04048 µM)
NCI-H2087 | 0.331 | 0.198 | 0.225 | 0.985 | 0.885 | 0.934 | 1.01 | 1.03 | 0.908 | 1.02 | 1.2 | 0.794 | 0.655 | 0.835 | 0.656 | 0.244 | 0.237 | 0.222 | – | –
NCI-H2126 | 0.612 | 0.608 | 0.457 | 0.742 | 0.673 | 0.748 | 0.792 | 0.858 | 0.863 | 0.79 | 0.641 | 1.02 | 0.951 | 0.965 | 1.04 | 0.35 | 0.344 | 0.329 | 0.551 | 0.372
NCI-H2347 | 0.618 | 0.57 | 0.639 | 0.896 | 0.837 | 0.899 | 0.927 | 0.864 | 0.794 | 0.769 | 0.858 | 0.678 | 0.684 | 0.802 | 0.808 | 0.461 | 0.392 | 0.416 | 0.612 | 0.43
NCI-H2405 | 0.861 | 0.657 | 0.362 | 0.965 | 1.01 | – | 0.853 | 0.744 | 0.639 | 0.729 | 0.265 | 0.787 | 0.825 | 0.797 | 0.842 | 0.551 | 0.486 | 0.269 | 0.55 | 0.396
NCI-H3122 | 0.44 | 0.447 | 0.318 | 0.913 | 0.987 | 1.13 | 1.05 | 1.03 | – | 1.01 | 0.869 | 0.286 | 0.258 | 0.3 | 0.331 | 0.197 | 0.169 | 0.189 | – | –
PC-3 [JPC-3] | 0.923 | 0.847 | 0.865 | 0.913 | 0.862 | 0.925 | 0.934 | 0.904 | 0.803 | 0.776 | 0.86 | 0.99 | 0.824 | 0.966 | 0.943 | 0.588 | 0.529 | 0.676 | 0.894 | 0.621
PC-14 | 0.203 | 0.216 | 0.326 | 0.995 | 0.943 | 0.996 | 0.975 | 1.05 | 1.05 | 0.987 | 1.21 | 0.903 | 0.882 | 0.832 | 0.907 | 0.515 | 0.486 | 0.433 | 0.186 | 0.503
RERF-LC-KJ | 0.716 | 0.737 | 0.845 | 0.945 | 0.868 | 0.89 | 0.926 | 0.829 | 1.09 | 0.94 | 0.837 | 0.892 | 0.764 | 0.813 | 0.811 | 1.08 | 1.07 | 0.972 | 0.759 | 1.19
SK-LU-1 | 0.577 | 0.559 | 0.481 | 1.11 | 0.961 | 1.06 | 0.664 | 0.95 | 0.801 | 0.544 | 0.567 | 0.913 | 0.948 | 0.914 | 0.584 | 0.41 | 0.357 | 0.249 | 0.557 | 0.369
SK-MES-1 | 0.384 | 0.454 | 0.355 | 1.05 | 0.954 | 1.06 | 1.07 | 1.37 | 1.39 | 1.14 | 1.15 | 0.966 | 0.929 | 0.931 | 0.94 | 0.298 | 0.319 | 0.277 | 0.368 | 0.374
SW 1573 | 0.527 | 0.491 | 0.366 | 0.747 | 0.848 | 0.979 | 1.02 | 0.817 | 1.02 | 1.02 | 0.716 | 0.704 | 1.01 | 0.782 | 0.631 | 0.393 | 0.172 | 0.347 | 0.446 | 0.388
